# According to ChEMBL document CHEMBL1133250, “Antitumor promoting activities of 3-O-acyl-(-)epigallocatechins” (2000):
# Key:
# Assay type in all cases: functional
# Human gammaherpesvirus 4 [1] = experiment: In vitro assay for EBV activation in Raji cells induced by 12-O-tetradecanoylphorbol-13-acetate (TPA) at the concentration of 500 (mol ratio / 32 pmol TPA); (%Viability=>80)
# Human gammaherpesvirus 4 [2] = experiment: In vitro assay for EBV activation in Raji cells induced by 12-O-tetradecanoylphorbol-13-acetate (TPA) at the concentration of 10 (mol ratio / 32 pmol TPA)
# Human gammaherpesvirus 4 [3] = experiment: Tested for % viability of Rajii cells, in an in vitro assay for TPA-induced EBV activation at concentration of 500 (mol ratio / 32 pmol TPA)
# Human gammaherpesvirus 4 [4] = experiment: In vitro assay for EBV activation in Raji cells induced by 12-O-tetradecanoylphorbol-13-acetate (TPA) at the concentration of 100 (mol ratio / 32 pmol TPA)
# Human gammaherpesvirus 4 [5] = experiment: Tested for % viability of Rajii cells, in an in vitro assay for TPA-induced EBV activation at concentration of 1000 (mol ratio / 32 pmol TPA)
# Human gammaherpesvirus 4 [6] = experiment: In vitro assay for EBV activation in Raji cells induced by 12-O-tetradecanoylphorbol-13-acetate (TPA) at the concentration of 1000 (mol ratio / 32 pmol TPA)
# Human gammaherpesvirus 4 [7] = experiment: Tested for % viability of Rajii cells, in an in vitro assay for TPA-induced EBV activation at concentration of 10 (mol ratio / 32 pmol TPA)
# Human gammaherpesvirus 4 [8] = experiment: Tested for % viability of Rajii cells, in an in vitro assay for TPA-induced EBV activation at concentration of 100 (mol ratio / 32 pmol TPA)
SMILES,Activation (Human gammaherpesvirus 4 [1]),Activation (Human gammaherpesvirus 4 [2]),Viability (Human gammaherpesvirus 4 [3]),Activation (Human gammaherpesvirus 4 [4]),Viability (Human gammaherpesvirus 4 [5]),Activation (Human gammaherpesvirus 4 [6]),Viability (Human gammaherpesvirus 4 [7]),Viability (Human gammaherpesvirus 4 [8])
CCCC(=O)O[C@@H]1Cc2c(O)cc(O)cc2O[C@@H]1c1cc(O)c(O)c(O)c1,>33.8%,>94.5%,>80%,>65.1%,60%,13.3%,>80%,>80%
CCCCCC(=O)O[C@@H]1Cc2c(O)cc(O)cc2O[C@@H]1c1cc(O)c(O)c(O)c1,>30.8%,>93.5%,>80%,>62.4%,60%,12%,>80%,>80%
O=C(Cc1ccccc1)O[C@@H]1Cc2c(O)cc(O)cc2O[C@@H]1c1cc(O)c(O)c(O)c1,>37.9%,>96.3%,>80%,>67.8%,60%,15.4%,>80%,>80%
CCc1ccc(C(=O)O[C@@H]2Cc3c(O)cc(O)cc3O[C@@H]2c2cc(O)c(O)c(O)c2)cc1,>35.4%,>93.4%,>80%,>64.3%,60%,13.2%,>80%,>80%
CCCCCCC(C)C(=O)O[C@@H]1Cc2c(O)cc(O)cc2O[C@@H]1c1cc(O)c(O)c(O)c1 (stereo partly specified),>15.3%,>87.5%,>80%,>54.1%,60%,5%,>80%,>80%
O=C(CCc1ccccc1)O[C@@H]1Cc2c(O)cc(O)cc2O[C@@H]1c1cc(O)c(O)c(O)c1,>39%,>96.5%,>80%,>68.4%,60%,17.8%,>80%,>80%
CCCCCCCCC(C)C(=O)O[C@@H]1Cc2c(O)cc(O)cc2O[C@@H]1c1cc(O)c(O)c(O)c1 (stereo partly specified),>20.1%,>88.9%,>80%,>58.3%,60%,7.9%,>80%,>80%
CCCCCCCCCCCCCCCC(=O)O[C@@H]1Cc2c(O)cc(O)cc2O[C@@H]1c1cc(O)c(O)c(O)c1,>41.6%,>100%,>80%,>74.3%,60%,22.7%,>80%,>80%
Cc1ccc(CC(=O)O[C@@H]2Cc3c(O)cc(O)cc3O[C@@H]2c2cc(O)c(O)c(O)c2)cc1,>35.3%,>95.4%,>80%,>65.9%,60%,14%,>80%,>80%
CCCCCCCC(=O)O[C@@H]1Cc2c(O)cc(O)cc2O[C@@H]1c1cc(O)c(O)c(O)c1,>19.3%,>89.2%,>80%,>56%,60%,6.5%,>80%,>80%
CCCCCCCCCCCCCC(=O)O[C@@H]1Cc2c(O)cc(O)cc2O[C@@H]1c1cc(O)c(O)c(O)c1,>35.2%,>100%,>80%,>68.4%,60%,18.3%,>80%,>80%
CCCCCCCCCCCCCCCCCC(=O)O[C@@H]1Cc2c(O)cc(O)cc2O[C@@H]1c1cc(O)c(O)c(O)c1,>64%,>100%,>80%,>86.9%,60%,31.5%,>80%,>80%
CCCCCCCCCC(=O)O[C@@H]1Cc2c(O)cc(O)cc2O[C@@H]1c1cc(O)c(O)c(O)c1,>22.7%,>91.9%,>80%,>61.4%,60%,9.3%,>80%,>80%
CCCCCCCCCCCC(=O)O[C@@H]1Cc2c(O)cc(O)cc2O[C@@H]1c1cc(O)c(O)c(O)c1,>31.9%,>94.2%,>80%,>65.8%,60%,12.7%,>80%,>80%
Cc1ccc(C(=O)O[C@@H]2Cc3c(O)cc(O)cc3O[C@@H]2c2cc(O)c(O)c(O)c2)cc1,>33%,>91.7%,>80%,>62.8%,60%,10.4%,>80%,>80%
Oc1cc(O)c2c(c1)O[C@H](c1cc(O)c(O)c(O)c1)[C@H](O)C2 [EPIGALLOCATECHIN],>44.9%,>100%,>80%,>73%,60%,19.3%,>80%,>80%
O=C(O[C@@H]1Cc2c(O)cc(O)cc2O[C@@H]1c1cc(O)c(O)c(O)c1)c1cc(O)c(O)c(O)c1 [EPIGALOCATECHIN GALLATE],>35%,>95.9%,>80%,>69%,60%,15.5%,>80%,>80%
